Test results reported in ChEMBL document CHEMBL2176923, “Discovery of (5S,6S,9R)-5-amino-6-(2,3-difluorophenyl)-6,7,8,9-tetrahydro-5H-cyclohepta[b]pyridin-9-yl 4-(2-oxo-2,3-dihydro-1H-imidazo[4,5-b]pyridin-1-yl)piperidine-1-carboxylate (BMS-927711): an oral calcitonin gene-related peptide (CGRP) antagonist in clinical trials for treating migraine” (J Med Chem, 2012).
≈ marks a conversion by molar mass, not a printed value. Calls of active or inactive are those of the source. The rule behind the calls is not given here.

Tests used:
[1] = target: T1, Calcitonin gene-related peptide type 1 receptor (Homo sapiens, UniProt O60894+Q16602); test: Displacement of [125I]-CGRP from CGRP receptor in human SK-N-MC cells after 2 hrs by gamma scintillation counter analysis; format: cell-based
[2] = Half life in human liver microsomes; format: ADME, Microsome
[3] = Aqueous solubility of the compound in amorphous form; format: physicochemical
[4] = Fraction unbound in human plasma; format: ADME, cell-free
[5] = system: Salmonella typhimurium; test: Genotoxicity in Salmonella typhimurium by Ames test; format: toxicity, organism-based; conditions: salmonella enterica subsp. enterica serovar typhimurium
[6] = target: Cytochrome P450 2C9 (Homo sapiens, UniProt P11712); test: Inhibition of human recombinant CYP2C9 using 7-methoxy-4-trifluoromethylcoumarin as substrate after 45 mins by fluorescence assay; format: ADME
[7] = system: Callithrix jacchus; test: Antagonist activity at CGRP receptor in Harlan marmoset assessed as inhibition of CGRP-induced facial blood flow at 7 mg/kg, sc administered 45 mins interval for 2 hrs post alphaCGRP challenge measured at 15 mins by laser droppler flowmetry relative to control; format: functional; conditions: route subcutaneous
[8] = Oral bioavailability in overnight fasted cynomolgus monkey at 10 mg/kg administered as solution; format: ADME, organism-based, Macaca fascicularis; conditions: in vivo
[9] = target: Cytochrome P450 2C19 (Homo sapiens, UniProt P33261); test: Inhibition of human recombinant CYP2C19 using 3-cyano-7-ethoxycoumarine as substrate after 45 mins by fluorescence assay; format: ADME
[10] = Oral bioavailability in overnight fasted cynomolgus monkey at 10 mg/kg administered as suspension of crystalline free base; format: ADME, organism-based, Macaca fascicularis; conditions: in vivo
[11] = target: Voltage-gated inwardly rectifying potassium channel KCNH2 (Homo sapiens, UniProt Q12809); test: Inhibition of human ERG alpha subunit expressed in HEK293 cells at 10 to 30 uM; format: cell-based
[12] = Oral bioavailability in fasted Sprague-Dawley rat at 10 mg/kg administered as solution; format: ADME, organism-based; conditions: in vivo
[13] = target: Cytochrome P450 2D6 (Homo sapiens, UniProt P10635); test: Inhibition of human recombinant CYP2D6 using 3-[2-(N,N-diethyl-Nmethylamino) ethyl]-7-methoxy-4-methylcoumarin as substrate after 45 mins by fluorescence assay; format: ADME
[14] = system: HEK293; test: Inhibition of L type sodium channel expressed in HEK293 cells at 10 to 30 uM; format: cell-based; conditions: Homo sapiens
[15] = system: Callithrix jacchus; test: Antagonist activity at CGRP receptor in Harlan marmoset assessed as inhibition of alphaCGRP-induced facial blood flow at 7 mg/kg, sc administered 45 mins interval for 2 hrs post alphaCGRP challenge measured after 60 to 105 mins by laser droppler flowmetry relative to control; format: functional; conditions: route subcutaneous
[16] = target: T2, Cytochrome P450 2B6 (Homo sapiens, UniProt P20813); test: Inhibition of human recombinant CYP2B6 after 45 mins by fluorescence assay; format: ADME
T2 sequence (P20813 whole entry): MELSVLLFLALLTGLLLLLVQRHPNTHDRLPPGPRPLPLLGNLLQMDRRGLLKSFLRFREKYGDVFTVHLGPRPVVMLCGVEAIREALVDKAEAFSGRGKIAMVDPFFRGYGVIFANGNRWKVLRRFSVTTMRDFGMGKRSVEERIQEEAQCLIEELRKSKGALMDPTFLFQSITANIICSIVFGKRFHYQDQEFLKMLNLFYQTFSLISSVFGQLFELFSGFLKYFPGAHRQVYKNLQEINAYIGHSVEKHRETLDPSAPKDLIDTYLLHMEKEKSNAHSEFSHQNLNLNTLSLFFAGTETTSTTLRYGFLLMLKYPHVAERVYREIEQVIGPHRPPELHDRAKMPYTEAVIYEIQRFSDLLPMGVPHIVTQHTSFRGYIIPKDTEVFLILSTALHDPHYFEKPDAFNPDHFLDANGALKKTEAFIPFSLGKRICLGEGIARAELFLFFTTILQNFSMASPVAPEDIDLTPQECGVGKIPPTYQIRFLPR

[17] = organism: Homo sapiens; test: Toxicity in human up to 600 mg; format: organism-based; conditions: in vivo
[18] = Plasma concentration in Harlan marmoset at 7 mg/kg, sc at 15 mins; format: ADME, organism-based, Callithrix jacchus; design: dose 7 mg/kg, route subcutaneous
[19] = Permeability of the compound at 100 uM at pH 5.5 after 4 hrs by PAMPA; format: ADME; conditions: read-out: permeability
[20] = Plasma concentration in Harlan marmoset at 7 mg/kg, sc after 60 to 105 mins; format: ADME, organism-based, Callithrix jacchus; design: dose 7 mg/kg, route subcutaneous; conditions: in vivo
[21] = Aqueous solubility of the compound in crystalline form; format: physicochemical
[22] = target: Voltage-gated L-type calcium channel (Homo sapiens, UniProt Q13936+Q13698+Q01668+O60840); test: Inhibition of L type calcium channel expressed in HEK293 cells at 10 to 30 uM; format: cell-based
[23] = target: T1, Calcitonin gene-related peptide type 1 receptor; test: Antagonist activity at CGRP receptor in human SK-N-MC cells assessed as inhibition of CGRP-stimulated cAMP production preincubated for 15 mins prior to CGRP challenge measured after 30 mins by HTRF assay; format: functional, cell-based
[24] = Permeability of the compound at 100 uM at pH 7.4 after 4 hrs by PAMPA; format: ADME; conditions: read-out: permeability
[25] = target: T3, Cytochrome P450 2A6 (Homo sapiens, UniProt P11509); test: Inhibition of human recombinant CYP2A6 after 45 mins by fluorescence assay; format: ADME
T3 sequence (P11509 whole entry): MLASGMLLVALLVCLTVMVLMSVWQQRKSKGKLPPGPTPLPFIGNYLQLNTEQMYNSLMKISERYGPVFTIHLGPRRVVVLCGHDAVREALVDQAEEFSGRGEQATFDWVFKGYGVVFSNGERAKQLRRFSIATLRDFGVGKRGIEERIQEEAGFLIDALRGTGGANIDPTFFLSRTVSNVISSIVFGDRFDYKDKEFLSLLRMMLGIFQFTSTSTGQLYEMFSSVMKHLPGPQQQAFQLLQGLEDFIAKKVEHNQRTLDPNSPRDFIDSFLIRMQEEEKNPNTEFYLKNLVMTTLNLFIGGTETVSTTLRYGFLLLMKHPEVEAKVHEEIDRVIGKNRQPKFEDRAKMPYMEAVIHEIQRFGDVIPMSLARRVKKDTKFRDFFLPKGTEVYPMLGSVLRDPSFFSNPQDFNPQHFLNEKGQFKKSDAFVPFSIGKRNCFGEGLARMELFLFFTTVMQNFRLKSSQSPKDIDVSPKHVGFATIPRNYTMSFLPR

[26] = target: T4, Cytochrome P450 1A2 (Homo sapiens, UniProt P05177); test: Inhibition of human recombinant CYP1A2 using 3-cyano-7-ethoxycoumarine as substrate after 45 mins by fluorescence assay; format: ADME
T4 sequence (P05177 whole entry): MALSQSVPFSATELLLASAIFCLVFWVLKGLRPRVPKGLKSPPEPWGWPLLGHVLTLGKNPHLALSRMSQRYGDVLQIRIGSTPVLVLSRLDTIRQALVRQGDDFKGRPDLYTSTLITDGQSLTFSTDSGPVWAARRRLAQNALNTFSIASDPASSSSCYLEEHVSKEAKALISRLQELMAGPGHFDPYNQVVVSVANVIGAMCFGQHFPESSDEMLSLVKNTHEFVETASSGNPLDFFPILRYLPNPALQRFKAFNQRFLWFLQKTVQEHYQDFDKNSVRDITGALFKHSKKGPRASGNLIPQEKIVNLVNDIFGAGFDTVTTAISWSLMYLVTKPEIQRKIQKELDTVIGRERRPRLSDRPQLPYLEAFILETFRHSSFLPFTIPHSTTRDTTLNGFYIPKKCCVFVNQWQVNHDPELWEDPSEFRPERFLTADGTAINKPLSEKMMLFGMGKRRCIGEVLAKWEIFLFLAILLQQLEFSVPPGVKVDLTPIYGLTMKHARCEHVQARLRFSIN

[27] = target: Cytochrome P450 2E1 (Homo sapiens, UniProt P05181); test: Inhibition of human recombinant CYP2E1 after 45 mins by fluorescence assay; format: ADME
Cytochrome P450 2E1, sequence (P05181 whole entry): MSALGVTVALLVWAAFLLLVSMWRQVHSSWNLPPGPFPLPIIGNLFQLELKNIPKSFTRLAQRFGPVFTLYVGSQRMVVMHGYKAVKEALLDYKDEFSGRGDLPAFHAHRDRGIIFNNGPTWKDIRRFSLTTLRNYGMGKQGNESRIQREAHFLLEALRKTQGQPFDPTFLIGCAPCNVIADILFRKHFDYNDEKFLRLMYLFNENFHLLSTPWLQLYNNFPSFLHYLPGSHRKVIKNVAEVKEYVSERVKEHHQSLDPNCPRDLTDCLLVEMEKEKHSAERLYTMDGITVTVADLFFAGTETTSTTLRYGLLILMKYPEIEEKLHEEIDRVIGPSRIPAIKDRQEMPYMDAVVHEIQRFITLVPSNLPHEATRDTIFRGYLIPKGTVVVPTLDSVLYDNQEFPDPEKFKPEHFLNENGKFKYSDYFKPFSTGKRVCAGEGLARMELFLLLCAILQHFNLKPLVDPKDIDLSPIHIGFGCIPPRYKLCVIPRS

T1 sequence (Q16602 whole entry, one chain of several): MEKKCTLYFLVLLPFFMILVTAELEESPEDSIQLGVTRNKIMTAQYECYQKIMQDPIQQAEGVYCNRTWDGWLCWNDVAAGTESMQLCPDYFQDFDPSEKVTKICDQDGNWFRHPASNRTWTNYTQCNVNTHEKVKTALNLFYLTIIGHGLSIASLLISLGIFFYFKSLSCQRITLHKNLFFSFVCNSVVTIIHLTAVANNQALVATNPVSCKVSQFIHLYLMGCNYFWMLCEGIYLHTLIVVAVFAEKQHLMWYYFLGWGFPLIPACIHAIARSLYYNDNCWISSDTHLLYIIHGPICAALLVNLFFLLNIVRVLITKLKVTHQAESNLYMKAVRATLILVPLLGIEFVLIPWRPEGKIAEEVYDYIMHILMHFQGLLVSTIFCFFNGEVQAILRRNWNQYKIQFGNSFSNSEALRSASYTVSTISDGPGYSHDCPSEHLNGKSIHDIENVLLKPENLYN
Cytochrome P450 2C19, sequence (P33261 whole entry): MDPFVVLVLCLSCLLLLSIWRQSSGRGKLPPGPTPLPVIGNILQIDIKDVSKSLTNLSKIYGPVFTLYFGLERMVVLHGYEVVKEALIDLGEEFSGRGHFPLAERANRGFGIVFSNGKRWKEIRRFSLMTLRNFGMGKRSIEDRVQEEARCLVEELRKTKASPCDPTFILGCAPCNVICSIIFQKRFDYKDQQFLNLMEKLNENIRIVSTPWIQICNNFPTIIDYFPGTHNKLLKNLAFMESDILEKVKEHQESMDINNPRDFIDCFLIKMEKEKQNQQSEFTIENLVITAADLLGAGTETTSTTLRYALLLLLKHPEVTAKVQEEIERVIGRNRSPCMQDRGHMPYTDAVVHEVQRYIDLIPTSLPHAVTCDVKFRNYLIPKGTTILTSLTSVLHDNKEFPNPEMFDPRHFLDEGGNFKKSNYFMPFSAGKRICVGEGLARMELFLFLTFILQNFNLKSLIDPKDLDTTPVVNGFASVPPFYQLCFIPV
Cytochrome P450 2D6, sequence (P10635 whole entry): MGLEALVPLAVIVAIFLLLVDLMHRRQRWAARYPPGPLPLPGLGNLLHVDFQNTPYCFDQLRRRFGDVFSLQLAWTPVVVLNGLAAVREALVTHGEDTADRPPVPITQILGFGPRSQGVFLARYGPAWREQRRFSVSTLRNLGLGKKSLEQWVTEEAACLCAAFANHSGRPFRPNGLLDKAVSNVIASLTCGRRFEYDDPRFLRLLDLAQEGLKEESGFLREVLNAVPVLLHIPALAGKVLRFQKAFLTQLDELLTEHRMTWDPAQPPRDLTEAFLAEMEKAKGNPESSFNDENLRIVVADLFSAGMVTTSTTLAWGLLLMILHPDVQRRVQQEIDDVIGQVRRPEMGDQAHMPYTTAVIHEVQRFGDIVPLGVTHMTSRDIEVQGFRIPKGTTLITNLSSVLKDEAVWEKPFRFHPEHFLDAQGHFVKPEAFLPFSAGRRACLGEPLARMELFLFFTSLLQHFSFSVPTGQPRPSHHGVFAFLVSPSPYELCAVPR
Voltage-gated inwardly rectifying potassium channel KCNH2, sequence (Q12809 whole entry): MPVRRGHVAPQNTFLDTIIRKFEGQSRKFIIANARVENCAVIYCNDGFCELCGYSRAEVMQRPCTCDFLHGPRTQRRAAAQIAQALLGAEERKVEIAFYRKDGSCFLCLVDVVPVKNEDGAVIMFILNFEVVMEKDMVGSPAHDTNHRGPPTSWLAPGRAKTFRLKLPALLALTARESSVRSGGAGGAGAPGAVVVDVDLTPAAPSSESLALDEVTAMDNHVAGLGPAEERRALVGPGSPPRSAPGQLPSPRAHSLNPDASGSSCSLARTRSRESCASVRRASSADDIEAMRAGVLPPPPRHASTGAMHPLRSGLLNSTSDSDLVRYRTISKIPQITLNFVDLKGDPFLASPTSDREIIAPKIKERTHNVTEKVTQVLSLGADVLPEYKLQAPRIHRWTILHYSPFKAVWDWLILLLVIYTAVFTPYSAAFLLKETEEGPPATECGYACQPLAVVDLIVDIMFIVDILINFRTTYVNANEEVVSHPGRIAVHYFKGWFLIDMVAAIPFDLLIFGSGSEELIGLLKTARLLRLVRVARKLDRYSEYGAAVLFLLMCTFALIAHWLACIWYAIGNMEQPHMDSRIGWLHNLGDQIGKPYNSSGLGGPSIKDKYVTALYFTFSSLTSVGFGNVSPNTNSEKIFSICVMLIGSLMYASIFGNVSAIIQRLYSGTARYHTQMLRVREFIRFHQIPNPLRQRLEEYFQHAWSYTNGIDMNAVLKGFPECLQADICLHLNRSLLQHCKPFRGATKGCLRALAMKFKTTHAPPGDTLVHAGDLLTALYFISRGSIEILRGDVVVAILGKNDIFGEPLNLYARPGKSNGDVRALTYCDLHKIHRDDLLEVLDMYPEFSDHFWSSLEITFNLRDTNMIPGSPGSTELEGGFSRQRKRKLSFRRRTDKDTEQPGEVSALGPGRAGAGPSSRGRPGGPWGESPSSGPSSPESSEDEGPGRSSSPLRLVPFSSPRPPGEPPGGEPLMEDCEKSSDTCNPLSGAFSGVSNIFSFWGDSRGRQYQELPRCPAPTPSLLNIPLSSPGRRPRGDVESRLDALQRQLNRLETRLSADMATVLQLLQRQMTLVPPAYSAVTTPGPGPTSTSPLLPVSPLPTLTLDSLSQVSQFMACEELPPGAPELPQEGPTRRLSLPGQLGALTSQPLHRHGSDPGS
Cytochrome P450 2C9, sequence (P11712 whole entry): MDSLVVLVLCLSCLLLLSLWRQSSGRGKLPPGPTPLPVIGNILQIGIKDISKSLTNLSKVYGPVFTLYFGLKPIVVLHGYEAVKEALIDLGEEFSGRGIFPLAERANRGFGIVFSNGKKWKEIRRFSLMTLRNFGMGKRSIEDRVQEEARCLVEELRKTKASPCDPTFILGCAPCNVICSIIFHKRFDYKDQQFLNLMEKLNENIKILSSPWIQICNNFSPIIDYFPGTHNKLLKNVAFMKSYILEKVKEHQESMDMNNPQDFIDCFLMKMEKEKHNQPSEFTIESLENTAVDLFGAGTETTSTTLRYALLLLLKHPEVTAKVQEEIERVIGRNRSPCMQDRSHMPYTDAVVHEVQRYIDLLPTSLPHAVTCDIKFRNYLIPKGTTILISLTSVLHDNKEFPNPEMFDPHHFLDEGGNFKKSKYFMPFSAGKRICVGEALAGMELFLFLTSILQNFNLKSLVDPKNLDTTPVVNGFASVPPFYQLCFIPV

Compound: [N-]=[N+]=N[C@@H]1c2cccnc2[C@H](OC(=O)N2CCC(n3c(=O)[nH]c4ncccc43)CC2)CC[C@H]1c1cccc(F)c1F
- Ki [1]: 0.066 nM

Compound: O=C(O[C@@H]1CC[C@@H](c2cccc(F)c2F)[C@@H](O)c2cccnc21)N1CCC(n2c(=O)[nH]c3ncccc32)CC1
- Ki [1]: 4.3 nM

Compound: O=C(O[C@@H]1CC[C@@H](c2cccc(F)c2F)[C@H](O)c2cccnc21)N1CCC(n2c(=O)[nH]c3ncccc32)CC1
- half-life [2]: 1.17 h
- solubility [3]: 66 µg/mL (≈ 123 µM)
- Ki [1]: 0.081 nM
- fraction unbound [4]: 0.041

Compound: O=C(O[C@@H]1CC[C@H](c2cccc(F)c2F)[C@H](O)c2cccnc21)N1CCC(n2c(=O)[nH]c3ncccc32)CC1 (mixture of isomers)
- Ki [1]: 0.67 nM

Compound: N[C@@H]1c2cccnc2[C@H](OC(=O)N2CCC(n3c(=O)[nH]c4ncccc43)CC2)CC[C@H]1c1cccc(F)c1F [RIMEGEPANT]
- Activity [5]: Non-toxic
- IC50 [6]: ≥ 20000 nM
- inhibition in vivo at 7 mg/kg [7]: > 65%
- bioavailability [8]: 67%
- half-life [2]: 1.38 h
- IC50 [9]: ≥ 20000 nM
- bioavailability [10]: 48%
- inhibition (INH) [11]: < 30%
- bioavailability [12]: 45%
- IC50 [13]: ≥ 20000 nM
- inhibition [14]: inactive
- inhibition in vivo at 7 mg/kg [15]: 75%
- IC50 [16]: ≥ 20000 nM
- Activity [17]: Non-toxic
- concentration at 0.25 h [18]: 400 nM
- Papp at 4 h, 100 µM [19]: 19 ×10⁻⁶ cm/s
- Ki [1]: 0.027 nM
- concentration [20]: < 800 nM
- solubility [21]: 50 µg/mL (≈ 93.5 µM)
- inhibition (INH) [22]: Not Active
- EC50 [23]: 0.14 nM
- Papp at 4 h, 100 µM [24]: 32 ×10⁻⁶ cm/s
- IC50 [25]: ≥ 20000 nM
- IC50 [26]: ≥ 20000 nM
- fraction unbound [4]: 0.069
- IC50 [27]: ≥ 20000 nM
